# Source: patent publication US7803992B2, “Methods and compositions for expressing an herbicide-tolerant polynucleotide” (Pioneer Hi-Bred International, Inc., priority 2005, dated 2010)
# Tests used:
# [1] = system: GAT-HRA transgenic cotton plants; test: Greenhouse over the top herbicide spray of cotton; format: in vivo, Gossypium hirsutum; conditions: glyphosate 1.5 lb acid equivalent per acre at 4-6 leaf stage; 14 days after application
# Text: (§1) Transformed cotton plants were rooted and then transferred to soil for further growth. Plants were then subjected to herbicide spray treatments in a greenhouse. […] Untransformed Coker 312 control plants were dead 2 weeks after glyphosate application. […] Plants transformed with both GAT and HRA were further subjected to an “over the top” application of the sulfonylurea herbicide rimsulfuron at a rate of 16 g active ingredient/hectare. […] In further experiments 32 g ai/ha rimsulfuron were applied to the cotton.
# [2] = system: Untransformed Coker 312 cotton; test: Greenhouse over the top herbicide spray of cotton; format: in vivo, Gossypium hirsutum; conditions: glyphosate 1.5 lb ae/acre, 2 weeks after application; rimsulfuron 16 g active ingredient/hectare without glyphosate
# Text: as §1
# [3] = system: parent elite stiff stalk inbred corn; test: Postemergence herbicide application in greenhouse: fresh shoot weight and visual injury; format: in vivo
# GAT-HRA soybeans = test: Postemergence herbicide treatment of soybeans in greenhouse, visual injury; format: in vivo, soybean; conditions: postemergence, glyphosate 8960, tribenuron-methyl 35, rimsulfuron 35 g/ha
# Protocol: (§2) Young regenerated transgenic plants were sprayed with 1× glyphosate (1× rate of glyphosate is 1120 g/ha of glyphosate isopropylamine) to cull segregants. Four replications were performed for each treatment. Plants were then treated with various herbicides, including glyphosate and ALS-inhibitor herbicides.
# (§3) Six soybean seeds from each variety to be assayed were planted 1 cm deep in 5.5 (13.97 cm) inch square plastic container of a synthetic growth medium. […] When possible, containers were thinned to two uniform plants. Non-transgenic lines were thinned to two uniform plants per container.
# (§4) Results are expressed below in Table 11 as the mean of four replications.
# [4] = system: Wild Type soybeans (Jack); test: as above; format: in vivo, soybean; conditions: postemergence, glyphosate 8960, tribenuron-methyl 35, rimsulfuron 35 g/ha
# Protocol: as §2, §3, §4
# [5] = system: Heterozygous GAT-HRA corn; test: Postemergence herbicide application in greenhouse: fresh shoot weight and visual injury; format: in vivo
# STS ® soybeans = test: Postemergence herbicide treatment of soybeans in greenhouse, visual injury; format: in vivo, soybean
# Text: When possible, containers were thinned to two uniform plants.
# [6] = system: Non-glyphosate resistant Conyza (Welgevallen-paraquat resistant); test: Control of hairy fleabane by glyphosate, metsulfuron-methyl and two additives; format: in vivo, Conyza bonariensis; conditions: glyphosate on its own; 10-15 leaf stage
# Protocol: This example included the same treatments as used in Example 11, except the treatments were carried out on a glyphosate sensitive biotype of Kleinskraalhans (Conyza bonariensis). […] In this example, however, ammonium sulfate-based adjuvant (ADD-UP®) preformed better than bispyribac-sodium (VELOCITY®) with the mixture.
# • Biotype: Non-glyphosate resistant Conyza (Welgevallen-paraquat resistant) • Growth Stage: 10-15 leaf stage • Condtions: Cool and sunny • Volume rate: 200 L ha^−1 • glyphosate (ROUNDUP): 360 g a.i. L^−1
# [7] = system: non-transformed GS3 embryos; test: Glyphosate kill curve on culture media; format: cell-based, maize; conditions: about 40 days culture
# Protocol: A glyphosate kill curve was established by testing non-transformed embryos response on media with different levels of glyphosate. GS3 embryos were isolated from an immature ear and placed onto media containing glyphosate at 0.0, 0.5, 1.0, and 2.0 mM. After about 40 days culture, the response of the embryos were observed and recorded. Similarly, infected GS3 embryos with the GAT construct were placed onto media containing glyphosate at 0.0, 0.5, 1.0, and 2.0 mM. After about 40 days culture, the response of the infected embryos were observed and recorded (FIG. 7).
# [8] = Zea mays, post-emergence, […], read-out: % Visual Injury
smiles,measurement,setting,value
"O=C(O)CNCP(=O)(O)O [Glyphosate, N-phosphonomethylglycine]",transgenic plants showing no deleterious symptoms,[1],approximately 50%
same,damage to untransformed control plants,[2],dead
same,pest or weed control at 200 g/ha,[3]; [8],100%
same,Fresh Weight,"[3]; postemergence, 200 g/ha (glyphosate 3472 g ae/ha, glufosinate ammonium 1870 g/ha), weighed 2 weeks after treatment, mean of four replications, untreated 76.4 g",1.0 g
same,% Visual Injury,"GAT-HRA soybeans; event 59, mean",38%
same,% Visual Injury,GAT-HRA soybeans; event 59 line 21,40%
same,% Visual Injury,GAT-HRA soybeans; event 59 line 28,37%
same,% Visual Injury,"GAT-HRA soybeans; event 60, mean",15%
same,% Visual Injury,GAT-HRA soybeans; event 60 line 07,19%
same,% Visual Injury,GAT-HRA soybeans; event 60 line 11,11%
same,% Visual Injury,GAT-HRA soybeans; event 60 line 22,11%
same,% Visual Injury,GAT-HRA soybeans; event 60 line 35,9%
same,% Visual Injury,GAT-HRA soybeans; event 60 line 41,13%
same,% Visual Injury,GAT-HRA soybeans; event 60 line 46,20%
same,% Visual Injury,GAT-HRA soybeans; event 60 line 70,9%
same,% Visual Injury,GAT-HRA soybeans; event 60 line 75,14%
same,% Visual Injury,GAT-HRA soybeans; event 60 line 77,19%
same,% Visual Injury,GAT-HRA soybeans; event 60 line 79,18%
same,% Visual Injury,GAT-HRA soybeans; event 60 line 82,20%
same,% Visual Injury,GAT-HRA soybeans; event 60 line 84,22%
same,% Visual Injury,"GAT-HRA soybeans; event 61, mean",20%
same,% Visual Injury,GAT-HRA soybeans; event 61 line 02,10%
same,% Visual Injury,GAT-HRA soybeans; event 61 line 02B,10%
same,% Visual Injury,GAT-HRA soybeans; event 61 line 05,11%
same,% Visual Injury,GAT-HRA soybeans; event 61 line 14,10%
same,% Visual Injury,GAT-HRA soybeans; event 61 line 18,10%
same,% Visual Injury,GAT-HRA soybeans; event 61 line 24,60%
same,% Visual Injury,GAT-HRA soybeans; event 61 line 33,84%
same,% Visual Injury,GAT-HRA soybeans; event 61 line 34,23%
same,% Visual Injury,GAT-HRA soybeans; event 61 line 47,15%
same,% Visual Injury,GAT-HRA soybeans; event 61 line 49,9%
same,% Visual Injury,GAT-HRA soybeans; event 61 line 51,10%
same,% Visual Injury,GAT-HRA soybeans; event 61 line 60,16%
same,% Visual Injury,GAT-HRA soybeans; event 61 line 62,6%
same,% Visual Injury,GAT-HRA soybeans; event 61 line 99,10%
same,% Visual Injury,"GAT-HRA soybeans; event 64, mean",14%
same,% Visual Injury,GAT-HRA soybeans; event 64 line 41,20%
same,% Visual Injury,GAT-HRA soybeans; event 64 line 47,10%
same,% Visual Injury,[4]; Wild Type line 82,100%
same,% Visual Injury,[4]; Wild Type line Jack,100%
same,% Visual Injury,"[4]; Wild Type, mean",100%
same,pest or weed control at 200 g/ha,[5]; [8],10%
same,Fresh Weight,"[5]; postemergence, 200 g/ha (glyphosate 3472 g ae/ha, glufosinate ammonium 1870 g/ha), weighed 2 weeks after treatment, mean of four replications, untreated 98.8 g",97.4 g
same,% Visual Injury,"STS ® soybeans; STS ® line 25, glyphosate 8960, tribenuron-methyl 35, rimsulfuron 35 g/ha",100%
same,% Visual Injury,"STS ® soybeans; STS ® line 46, glyphosate 8960, tribenuron-methyl 35, rimsulfuron 35 g/ha",100%
same,% Visual Injury,"STS ® soybeans; STS ®, mean, glyphosate 8960, tribenuron-methyl 35, rimsulfuron 35 g/ha",100%
same,plants killed,[6],1 out of 16
same,"plants killed, percentage in brackets",[6],12%
same,callus growth of embryos,[7]; media containing 1.0 and 2.0 mM glyphosate,very little callus growth
same,embryos showing callus initiation,[7]; medium with 0.5 mM glyphosate,about half
